This note sets out measurements from paper PMC12775149 (Nature Communications, 2025).

The target of one assay is T1, AtCAT5 (Arabidopsis thaliana, UniProt O64759).
T1 sequence (O64759 1-569): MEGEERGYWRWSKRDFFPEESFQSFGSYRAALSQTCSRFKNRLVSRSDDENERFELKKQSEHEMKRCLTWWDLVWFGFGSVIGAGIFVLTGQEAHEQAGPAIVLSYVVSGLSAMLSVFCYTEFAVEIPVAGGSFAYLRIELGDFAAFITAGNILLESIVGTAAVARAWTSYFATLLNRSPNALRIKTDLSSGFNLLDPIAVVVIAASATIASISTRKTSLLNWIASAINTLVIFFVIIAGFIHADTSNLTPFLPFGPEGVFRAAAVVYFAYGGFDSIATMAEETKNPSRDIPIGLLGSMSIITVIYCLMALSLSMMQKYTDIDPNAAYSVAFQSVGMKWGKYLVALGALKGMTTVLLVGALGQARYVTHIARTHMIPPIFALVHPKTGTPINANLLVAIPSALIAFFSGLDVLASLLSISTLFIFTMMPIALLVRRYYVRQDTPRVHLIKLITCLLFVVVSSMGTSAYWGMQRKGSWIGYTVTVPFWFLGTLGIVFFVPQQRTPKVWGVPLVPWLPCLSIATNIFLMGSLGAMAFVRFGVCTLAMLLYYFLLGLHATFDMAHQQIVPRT
The assay can be described thus: LC-MS/MS of PPT accumulated in overexpressing M. polymorpha versus Tak-1. As to conditions: whole plants, 100 µM PPT (time course at 1 mM PPT up to 48 h).

The target of the next assay is T2, AtCAT1 (Arabidopsis thaliana, UniProt Q84MA5).
T2 sequence (Q84MA5 2-594): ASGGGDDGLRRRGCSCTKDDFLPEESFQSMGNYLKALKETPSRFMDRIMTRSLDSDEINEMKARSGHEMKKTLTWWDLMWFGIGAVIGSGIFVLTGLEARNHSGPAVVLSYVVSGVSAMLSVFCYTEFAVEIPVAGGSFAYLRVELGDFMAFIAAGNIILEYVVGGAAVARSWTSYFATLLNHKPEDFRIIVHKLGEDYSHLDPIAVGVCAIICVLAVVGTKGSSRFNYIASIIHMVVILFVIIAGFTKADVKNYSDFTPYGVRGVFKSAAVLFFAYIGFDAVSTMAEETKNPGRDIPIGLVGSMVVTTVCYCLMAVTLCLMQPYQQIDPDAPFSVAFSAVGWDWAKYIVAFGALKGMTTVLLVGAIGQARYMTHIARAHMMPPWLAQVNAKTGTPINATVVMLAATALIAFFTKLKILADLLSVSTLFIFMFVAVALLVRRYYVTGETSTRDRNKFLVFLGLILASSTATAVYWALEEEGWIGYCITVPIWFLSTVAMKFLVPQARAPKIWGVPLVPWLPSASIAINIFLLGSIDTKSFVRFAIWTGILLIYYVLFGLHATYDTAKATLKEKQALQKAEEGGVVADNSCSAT
Described as above. To be noted: whole plants, 100 µM PPT.

Regarding `CP(=O)(O)CC[C@H](N)C(=O)O` [PPT, L-phosphinothricin], the PPT accumulation entry at AtCAT5 is “Increased PPT contents in both AtCAT1ox and AtCAT5ox lines confirmed the successful mediation”; at AtCAT1 it was “Increased PPT contents in both AtCAT1ox and AtCAT5ox lines confirmed the successful mediation”.
